Experimental data: the NIST ThermoML archive (doi:10.1021/je200862b)

Tests used:
[1] = xn = mol fraction of the nth substance listed; details: 101 kPa, Liquid; for viscosity: Capillary tube (Ostwald / Ubbelohde) method
[2] = 101 kPa, Liquid; for viscosity: Capillary tube (Ostwald / Ubbelohde) method; for mass density: Pycnometric method

CN(C)c1ccccc1 [N,N-dimethylaniline] + CCC(=O)O
viscosity [mPa·s], [1]
Details	x2 = 0	x2 = 0.102	x2 = 0.2054	x2 = 0.3071	x2 = 0.4092	x2 = 0.5107	x2 = 0.6178	x2 = 0.7083	x2 = 0.8023	x2 = 0.8987
303.15 K	1.174	1.27	1.329	1.386	1.446	1.494	1.545	1.534	1.457	1.225
313.15 K	0.9823	1.019	1.058	1.093	1.124	1.149	1.151	1.119	1.06	0.9646
323.15 K	0.8259	0.8432	0.8693	0.8949	0.9196	0.9397	0.9442	0.9121	0.864	0.7783

mass density [kg/m3], [1], Pycnometric method
Details	x2 = 0	x2 = 0.102	x2 = 0.2054	x2 = 0.3071	x2 = 0.4092	x2 = 0.5107	x2 = 0.6178	x2 = 0.7083	x2 = 0.8023	x2 = 0.8987
303.15 K	948.02	954.36	959.8	964.49	969.31	974.03	978.56	982.24	985.32	986.44
313.15 K	938.5	943.74	949.09	954.21	959.17	963.99	968.62	972.2	975.35	975.69
323.15 K	930.72	934.82	939.72	944.52	–	953.51	958	961.05	963.47	963.54

CCC(=O)O [propanoic acid]
[2]
Details	mass density [kg/m3]	viscosity [mPa·s]
303.15 K	982.09	0.9496
313.15 K	973.4	0.8476
323.15 K	961.39	0.7062

CCC(=O)O [propanoic acid] + CCN(CC)c1ccccc1
[1], x1 = 1
Details	viscosity [mPa·s]
303.15 K	0.9496
313.15 K	0.8476
323.15 K	0.7062

[1], Vibrating tube method, x1 = 1
Details	mass density [kg/m3]
303.15 K	982.09
313.15 K	973.4
323.15 K	961.39

CCC(=O)O [propanoic acid] + CN(C)c1ccccc1
[1], x1 = 1
Details	viscosity [mPa·s]
303.15 K	0.9496
313.15 K	0.8476
323.15 K	0.7062

[1], Pycnometric method, x1 = 1
Details	mass density [kg/m3]
303.15 K	982.09
313.15 K	973.4
323.15 K	961.39
